Like-named read-outs stand apart in the source and are kept apart here.
Columns and labels:
RD = assay: Broad cell line profiling, RD; format: cell-based; conditions: Human Rhabdomyosarcoma, read-out: PA IC50
Source text: (§1) • A panel of human and mouse cancer cell types used to assess the breadth of PA activity, including multiple therapy resistant metastatic mesenchymal tumor cell lines and primary glioblastoma patient-derived metastatic stem/tumor initiating cell populations.

HCC1806 = assay: Broad cell line profiling, HCC1806; format: cell-based; conditions: Homo sapiens; HCC1806, Acantholytic Squamous Carcinoma; read-out: PA IC50
Source text: as §1

MCF-7 = assay: Broad cell line profiling, MCF-7; format: cell-based; conditions: Homo sapiens, MCF7; MCF-7, Breast Adenocarcinoma; read-out: PA IC50
Source text: as §1

MD-MBA-231 = assay: Broad cell line profiling, MD-MBA-231; format: cell-based; conditions: Homo sapiens; MD-MBA-231, TNBC Breast Adenocarcinoma; read-out: PA IC50
Source text: as §1

SUM159 = assay: Broad cell line profiling, SUM159; format: cell-based; conditions: Homo sapiens; SUM159, Breast Adenocarcinoma; read-out: PA IC50
Source text: as §1

786-O = assay: Broad cell line profiling, 786-O; format: cell-based; conditions: Homo sapiens, 786-0, Renal Adenocarcinoma, read-out: PA IC50
Source text: as §1

LN229 = assay: Broad cell line profiling, LN229; format: cell-based; conditions: Homo sapiens, LN-229; LN229, Glioblastoma; read-out: PA IC50
Source text: as §1

U118 = assay: Broad cell line profiling, U118; format: cell-based; conditions: Homo sapiens; U118, Glioblastoma; read-out: PA IC50
Source text: as §1

B16-F10 = assay: Broad cell line profiling, B16-F10; format: cell-based; conditions: B16-F10, Mouse Melanoma; read-out: PA IC50
Source text: as §1

4T1 = assay: Broad cell line profiling, 4T1; format: cell-based; conditions: 4T1, Mouse Mammary Carcinoma; read-out: PA IC50
Source text: as §1

Jurkat = assay: Washout experiment, Cell Titerglo cell viability; format: cell-based, human; conditions: for IC50: Homo sapiens, Jurkat 50 k per well
p53 = p53 protein level in Jurkat cells; format: cell-based, human
Description: (§2) FIG. 7. Portimine A targets NMD3 and prevents polysome formation. […] (A) Immunoblot showing reduced NMD3 levels in shNMD3 Jurkat and HeLa cells. […] Jurkat cells were treated with 12.5 nM of PA for 12 or 24 hours. Jurkat and HeLa cells were treated with 5 nM or 150 nM of PA for 24 hours. Data represents mean±SD of biologically replicated experiments (n=3). […] Cell lysates were fractionated by sucrose gradient (5-50%) and each fraction were analyzed by western blot. eIF6 levels increase in 60S subunit fraction and decrease in ribosome-free fractions after PA treatment. RPS6, a 40S and polysome subunits marker, is decreased in polysome fractions after PA treatment. Results are representative of three independent experiments. […] Relative protein levels in each fraction were normalized to the peak fraction of the indicated protein from the DMSO cells and plotted. Data represents mean±SD of biologically replicated experiments (n=3). Statistical analysis was performed using multiple unpaired Student t-test. * p≤0.05; ** p≤0.01; *** p≤0.005; **** p≤0.0001. Treatment condition: Jurkat (5 M per condition); Incubate cells (1 M/mL) with inhibitors for 6 hr, 12 hr and 24 hr, respectively.
(§3) • 1) Portimine A and its functional analogs show stereo-selective acute toxicity in cancer cells (FIG. 1). […] (B) Structure of portimine related analogs: phenyl-portimine A (Ph-PA, 36) and epi-portimine A (ePA, 38). […]

Bcl2 = Bcl2 protein level in Jurkat cells; format: cell-based, human; conditions: 6/12 hrs
Description: as §2, §3

[1] = tested on: shNMD3 Jurkat and HeLa cells; assay: Toxicity in NMD3 knock-down (shNMD3) cells; format: cell-based, human; conditions: Jurkat 12.5 nM 12 or 24 hours; Jurkat and HeLa 5 nM or 150 nM 24 hours
Description: as §2, §3

[2] = in vivo; cited from earlier work

Structure (SMILES): C=CC1=C[C@@H]2[C@@H]3O[C@]4(CC[C@H](O4)C(C)C[C@@H](O)C3=O)CC(O)C3=NCC[C@@]32CC1 (stereo partly drawn) [PA, portimine A]
- IC50 (RD): 0.56 nM
- IC50 (HCC1806): 0.72 nM
- IC50 (MCF-7): 0.77 nM
- IC50 (MD-MBA-231): 0.68 nM
- IC50 (SUM159): 1.9 nM
- IC50 (786-O): 1.8 nM
- IC50 (LN229): 1.1 nM
- IC50 (U118): 5.6 nM
- IC50 (B16-F10): 0.75 nM
- IC50 (4T1): 0.63 nM
- IC50 (Jurkat; read-out: IC50 after 30 min exposure, washout at 30 min, total 36 hours): ~5 nM
- IC50 (Jurkat; washout at 4 hr, total 36 hours, read-out: IC50 after 4 hr exposure): ~2 nM
- exposure resulting in minimal loss of potency (Jurkat; compound washout, cell-based target engagement): < 1 h
- decrease in IC50 on removing compound after 30 min (Jurkat; washout after 30 min, total 36 hours): ~ 5 fold
- p53 level (p53): downregulated
- Bcl2 levels (Bcl2): does not affect
- toxic effects in shNMD3 compared to shCtrl cells [1]: less toxic effects
- LD50 [2]: 1570 µg/kg

Reference: patent US20260242390A1, “TOTAL SYNTHESES OF PORTIMINE A AND ANALOGUES THEREOF AS SMALL MOLECULE MODULATORS OF NMD3” (priority 2023, published 2026)
